Laboratory results reported in patent US20210115104A1, “AMYLIN ANALOGUES” (Zealand Pharma A/S, priority 2015, published 2021).
pEC50: −log10 of the molar value. Where two headings read alike, the source gives them in different places. *1 amine or outer side, *2 acyl side, *3 side chain or, on linkers, in order; H or OH if unused. Where a SMILES comes first, the peptide text is derived from it. Bridges are numbered along the chain shown (N, C = ends). [ ]: non-standard residue; d: D form. The star is where a group is joined. C20 diacid = O=C(O)CCCCCCCCCCCCCCCCCCC(=O)*; γGlu = O=C(O)[C@H](CCC(=O)[*:2])N[*:1]; Hyp = O=C(O)[C@@H]1C[C@@H](O)CN1; NMeI = CC[C@H](C)[C@H](NC)C(=O)O; Sar = CNCC(=O)O

Experiments:
[1] = target: T1, human calcitonin receptor (hCTR2) (Homo sapiens, UniProt P30988); assay: hCTR2 cAMP assay (AlphaScreen) in COS7 cells; assay type: cell-based; details: cAMP induction, COS7 cells expressing hCTR2; Table 1; read-out: hCTR2 EC50
T1 construct: expressed in transfected cells
T1 sequence (P30988 25-474): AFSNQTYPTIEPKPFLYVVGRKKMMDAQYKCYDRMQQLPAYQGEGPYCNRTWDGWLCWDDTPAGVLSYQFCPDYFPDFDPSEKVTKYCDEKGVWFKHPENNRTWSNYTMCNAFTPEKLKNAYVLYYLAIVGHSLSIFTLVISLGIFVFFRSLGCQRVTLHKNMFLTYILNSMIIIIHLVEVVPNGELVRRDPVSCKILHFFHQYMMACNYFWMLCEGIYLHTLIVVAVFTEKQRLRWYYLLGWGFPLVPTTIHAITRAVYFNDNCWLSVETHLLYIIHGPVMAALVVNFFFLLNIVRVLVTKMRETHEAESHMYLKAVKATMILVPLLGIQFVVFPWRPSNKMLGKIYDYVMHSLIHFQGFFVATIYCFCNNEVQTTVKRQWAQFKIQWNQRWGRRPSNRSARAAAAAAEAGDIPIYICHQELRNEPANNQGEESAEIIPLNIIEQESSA
Method in brief: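 cAMP induction, read by AlphaScreen after lysis, gives EC50 values via 4PL curve fitting. Peptides were applied at rising concentrations for 15 min at 37 °C, with IBMX and 0.1% casein in HEPES-buffered Tyrode pH 7.4, to COS7 cells (no endogenous RAMPs) stably expressing human CTR2.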

[2] = Assessment of solubility (turbidity absorbance at 325 nm); assay type: physicochemical; details: named as exception to solubility ≥1 mg/ml
Description: A stock solution of the test peptide (2 mg/ml; determined from the weighed amount of peptide) in demineralized water adjusted to pH 2.5 with HCl was prepared, and aliquots were diluted 1:1 in 100 mM acetate buffer (pH 4.0 and pH 5.0), 100 mM histidine buffer (pH 6.0 and pH 7.0) and 100 mM phosphate buffer (pH 6.0, pH 7.0 and pH7.5), respectively, and loaded in a standard flat-bottom, non-sterile 96-well UV Microplate. The absorbance of samples (single samples, n=1) at 280 and 325 nm was measured in an absorbance-based plate reader, which was preheated to ambient temperature (typically 25° C.). The turbidity absorbance criterion for a peptide solubility of ≥1 mg/ml was an absorbance at 325 nm of s 0.02 absorbance units (which is 5 to 6 times the standard deviation of 8 buffer samples in a plate).

[3] = Assessment of physical stability (Thioflavin T fibrillation); assay type: physicochemical; set-up: key: FND = fibrillation not detected; FD = fibrillation detected; details: 1 mg/ml, 40° C., ThT; for Fibrillation pH 4.0 (Ac): 50 mM acetate buffer pH 4.0, 96 hours; for Fibrillation pH 7.0 (His): 50 mM histidine buffer pH 7.0, 96 hours; for Fibrillation pH 7.0 (Phos.): 50 mM phosphate buffer pH 7.0, 96 hours
Method in brief: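 Fibrillation lag-time, in hours, taken where regressions of the initial stable phase and the growth phase intersect. ThT (40 μM) fluorescence monitored at 40 °C for 96 h, 10-min reads each preceded by 300 s mixing. Peptide at 1 mg/ml in 50 mM buffers: phosphate or histidine pH 7.0, acetate pH 4.0.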

[4] = Assessment of chemical stability (RP-HPLC normalized purity); assay type: physicochemical; details: 7 days, 40° C., Table 1; for Normalized purity after 7 days, 40° C., pH 4: pH 4, 0.2 mg/ml; for Normalized purity after 7 days, 40° C., pH 6: pH 6, 0.2 mg/ml; for Normalized purity after 7 days, 40° C., pH 7.5: pH 7.5, 0.2 mg/ml; for Normalized purity after 7 days, 40° C., pH 9: pH 9, 0.2 mg/ml
Method in brief: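 Purity after 7 days at 40° C is expressed relative to T=0 (set to 100) for each pH. Samples at 0.2 mg/ml, pH 4, 6, 7.5 or 9, analyzed by RP-HPLC with UV 220 nm on C8 (ammonium formate) or C18 (TFA) gradients.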

[5] = target: T2, human amylin receptor 3 (hAMYR3), hCTR2 co-expressed with hRAMP3 (Homo sapiens, UniProt O60896+P30988); assay: hAMYR3 cAMP assay (AlphaScreen) in COS7 cells; assay type: cell-based; details: cAMP induction, COS7 cells expressing hAMYR3; Table 1; read-out: hAMYR3 EC50
T2 construct: expressed in transfected cells
T2 sequence (P30988 25-474): T1 sequence (P30988 25-474)
T2 sequence (O60896 24-148 partner): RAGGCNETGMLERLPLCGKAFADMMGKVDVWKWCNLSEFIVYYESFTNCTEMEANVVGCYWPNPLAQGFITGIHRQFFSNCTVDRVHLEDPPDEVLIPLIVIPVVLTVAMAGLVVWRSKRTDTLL
Method in brief: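 EC50 values derive from 4PL curve fits of cAMP (AlphaScreen) in lysates of RAMP-naive COS7 cells stably carrying hCTR2 plus hRAMP3. Peptide dilution series were applied for 15 min at 37 °C in pH 7.4 Tyrode buffer containing 100 µM IBMX and 0.1% casein.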

[6] = Pharmacokinetic (PK) profiling in rats; assay type: in vivo, rat; set-up: CI/F (apparent clearance values): unit not given here; details: Sprague Dawley male rats, single sc 30 nmol/kg
Description: Sprague Dawley male rats were given a single subcutaneous (sc) bolus of each peptide to be tested, as specified below. 30 nmol/kg doses of compound were administered. Blood samples were drawn from the tail vein prior to dosing and at 24, 48, 72, 96 and 168 hours after dosing. Blood samples were taken from two rats at each time point, and only 2 blood samples were drawn from each rat, i.e. […] were used for each compound. The rats were euthanized immediately after the last blood sampling by concussion and cervical dislocation.
The dosing vehicle used for each test peptide was a mannitol-containing histidine buffer (pH 7.0). Plasma samples were analyzed after precipitation with ethanol by liquid chromatography mass spectrometry (LC-MS/MS). Mean plasma concentrations were used for calculation of the pharmacokinetic parameters using the non-compartmental approach in Phoenix WinNonlin 6.3.
Plasma terminal elimination half-life (t1/2) was determined as ln(2)/λz, where λz is the magnitude of the slope of the log linear regression of the log concentration versus time profile during the terminal phase. Apparent clearance (CL/F) was determined as dose/AUCinf (sc), where AUCinf is the area under the plasma concentration vs. time curve extrapolated to infinity (AUCinf=AUClast+Clast/λz, where Clast is the last observed plasma concentration).

| Structure (SMILES) | pEC50 [1] | solubility ([2]; pH 6.0, read-out: solubility at pH 6.0) | Fibrillation pH 4.0 (Ac) [3] | Fibrillation pH 7.0 (His) [3] | Fibrillation pH 7.0 (Phos.) [3] | Normalized purity after 7 days, 40° C., pH 4 [4] | Normalized purity after 7 days, 40° C., pH 6 [4] | Normalized purity after 7 days, 40° C., pH 7.5 [4] | Normalized purity after 7 days, 40° C., pH 9 [4] | pEC50 [5] | CI/F (apparent clearance values) [6] | solubility ([2]; pH 7.0, read-out: solubility at pH 7.0) | solubility ([2]; phosphate buffer, pH 7.5, read-out: solubility at pH 7.5) |
| --- | --- | --- | --- | --- | --- | --- | --- | --- | --- | --- | --- | --- | --- |
| CC[C@H](C)[C@@H](C(=O)N[C@@H](CC(C)C)C(=O)N[C@@H](CO)C(=O)N[C@@H](CO)C(=O)N[C@H](C(=O)N[C@@H](CCC(=O)O)C(=O)N[C@H](C(=O)NCC(=O)N[C@@H](CO)C(=O)N[C@@H](Cc1ccccc1)C(=O)N[C@H](C(=O)N1C[C@H](O)C[C@H]1C(N)=O)[C@@H](C)O)C(C)C)[C@@H](C)O)N(C)C(=O)[C@H](C)NC(=O)CN(C)C(=O)[C@H](Cc1ccccc1)NC(=O)[C@H](CO)NC(=O)[C@H](CO)NC(=O)[C@H](CCCNC(=N)N)NC(=O)[C@@H](NC(=O)[C@H](CC(C)C)NC(=O)[C@H](Cc1ccccc1)NC(=O)[C@H](Cc1c[nH]cn1)NC(=O)[C@H](C)NC(=O)[C@H](CC(C)C)NC(=O)[C@H](CCCNC(=N)N)NC(=O)[C@H](CCC(=O)O)NC(=O)[C@@H](NC(=O)[C@H](C)NC(=O)[C@@H]1CSSC[C@H](NC(=O)[C@H](CCCNC(=N)N)NC(=O)CC[C@H](NC(=O)CCCCCCCCCCCCCCCCCCC(=O)O)C(=O)O)C(=O)NCC(=O)N[C@@H]([C@@H](C)O)C(=O)N[C@@H](C)C(=O)N[C@@H]([C@@H](C)O)C(=O)N1)[C@@H](C)O)[C@@H](C)O [Compound 10, [19CD]-isoGlu-R-C( )-GTAT-C( )-ATERLAHFLTRSSF-Gly(Me)-A-Ile(Me)-LSSTEVGSFT-Hyp-NH2] ({C20 diacid-γGlu}-RCGTATCATERLAHFLTRSSF[Sar]A[NMeI]LSSTEVGSFT[Hyp]-NH2; disulfide 2-7) | 9.80 | < 1000 µg/mL | FND | FD | FD | A (A = >90%) | A (A = >90%) | B (B = 70-90%) | B (B = 70-90%) |  |  |  |  |
| CC[C@H](C)[C@@H](C(=O)N[C@@H](CC(C)C)C(=O)N[C@@H](CO)C(=O)N[C@@H](CO)C(=O)N[C@H](C(=O)N[C@@H](CCC(=O)O)C(=O)N[C@H](C(=O)NCC(=O)N[C@@H](CO)C(=O)NCC(=O)N[C@H](C(=O)N1C[C@H](O)C[C@H]1C(N)=O)[C@@H](C)O)C(C)C)[C@@H](C)O)N(C)C(=O)[C@H](C)NC(=O)CN(C)C(=O)[C@H](Cc1ccccc1)NC(=O)[C@H](CO)NC(=O)[C@H](CO)NC(=O)[C@H](CCCNC(=N)N)NC(=O)[C@@H](NC(=O)[C@H](CC(C)C)NC(=O)[C@H](Cc1ccccc1)NC(=O)[C@H](Cc1c[nH]cn1)NC(=O)[C@H](C)NC(=O)[C@H](CC(C)C)NC(=O)[C@H](CCCNC(=N)N)NC(=O)[C@H](CCC(=O)O)NC(=O)[C@@H](NC(=O)[C@H](C)NC(=O)[C@@H]1CSSC[C@H](NC(=O)[C@H](CCCNC(=N)N)NC(=O)CC[C@H](NC(=O)CCCCCCCCCCCCCCCCCCC(=O)O)C(=O)O)C(=O)NCC(=O)N[C@@H]([C@@H](C)O)C(=O)N[C@@H](C)C(=O)N[C@@H]([C@@H](C)O)C(=O)N1)[C@@H](C)O)[C@@H](C)O [Compound 13, [19CD]-isoGlu-R-C( )-GTAT-C( )-ATERLAHFLTRSSF-Gly(Me)-A-Ile(Me)-LSSTEVGSGT-Hyp-NH2] ({C20 diacid-γGlu}-RCGTATCATERLAHFLTRSSF[Sar]A[NMeI]LSSTEVGSGT[Hyp]-NH2; disulfide 2-7) |  |  | FND | FD | FD | A (A = >90%) | A (A = >90%) | A (A = >90%) | A (A = >90%) | 9.42 | 0.0106 |  |  |
| CC[C@H](C)[C@@H](C(=O)N[C@@H](CC(C)C)C(=O)N[C@@H](CO)C(=O)N[C@@H](CO)C(=O)N[C@H](C(=O)N[C@@H](CCC(=O)O)C(=O)N[C@H](C(=O)NCC(=O)N[C@@H](CO)C(=O)N[C@@H](CO)C(=O)N[C@H](C(=O)N1C[C@H](O)C[C@H]1C(N)=O)[C@@H](C)O)C(C)C)[C@@H](C)O)N(C)C(=O)[C@H](C)NC(=O)CN(C)C(=O)[C@H](Cc1ccccc1)NC(=O)[C@H](CO)NC(=O)[C@H](CO)NC(=O)[C@H](CCCNC(=N)N)NC(=O)[C@@H](NC(=O)[C@H](CC(C)C)NC(=O)[C@H](Cc1ccccc1)NC(=O)[C@H](Cc1c[nH]cn1)NC(=O)[C@H](C)NC(=O)[C@H](CC(C)C)NC(=O)[C@H](CCCNC(=N)N)NC(=O)[C@H](CCC(=O)O)NC(=O)[C@@H](NC(=O)[C@H](C)NC(=O)[C@@H]1CSSC[C@H](NC(=O)[C@H](CCCNC(=N)N)NC(=O)CC[C@H](NC(=O)CCCCCCCCCCCCCCCCCCC(=O)O)C(=O)O)C(=O)NCC(=O)N[C@@H]([C@@H](C)O)C(=O)N[C@@H](C)C(=O)N[C@@H]([C@@H](C)O)C(=O)N1)[C@@H](C)O)C(C)C [Compound 31, [19CD]-isoGlu-R-C( )-GTAT-C( )-ATERLAHFLVRSSF-Gly(Me)-A-Ile(Me)-LSSTEVGSST-Hyp-NH2] ({C20 diacid-γGlu}-RCGTATCATERLAHFLVRSSF[Sar]A[NMeI]LSSTEVGSST[Hyp]-NH2; disulfide 2-7) | 10.05 |  |  |  |  |  |  |  |  | 9.54 |  | < 1000 µg/mL | < 1000 µg/mL |
